Measured values from US10287267B2, “Isoquinolin-3-yl carboxamides and preparation and use thereof” (Samumed, LLC, priority 2016, dated 2019).
pEC50: −log10 of the molar value. Where two headings read alike, the source gives them in different places.

Key:
[1] = system: SW480 colon carcinoma cells; assay: Cell viability assay (CellTiter-Glo); assay type: cell-based, human; details: Homo sapiens; for pEC50: 96 h, SW480 cells, CellTiter-Glo, four days incubation; for inhibition at 10 µM: SW480, read-out: percent inhibition at 10 μM
recombinant GSK3β kinase = recombinant GSK3β kinase (Homo sapiens (Human), UniProt P49841); assay: GSK3β kinase assay (Ser/Thr 09 peptide Z-lyte FRET); assay type: biochemical; details: 46 μM ATP, 1 h room temperature;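 also: kinase activity read as coumarin to fluorescein emission ratio, 11-point threefold dilutions from 10 µM to 0.0003 µM in duplicate, unphosphorylated and phosphorylated peptide as 0% and 100% controls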
[2] = system: Wnt pathway (Sp5-Luc reporter, TCF/LEF binding sites) in SW480 colon carcinoma cells; assay: Screening assay for Wnt activity: Sp5-Luc reporter gene assay; assay type: cell-based, human; details: Homo sapiens; for inhibition at 10 µM: SW480, read-out: percent inhibition at 10 μM; for pEC50: Sp5-Luc reporter, SW480 cells, 36 to 48 hours;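 as to all read-outs here: firefly luciferase luminescence read in stably transduced SW480 cells carrying the Sp5 promoter reporter with eight TCF/LEF sites, compounds given in 0.1% DMSO final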
Protocol: The screening assay for Wnt activity is described as follows.
Following incubation, 15 μl of BriteLite Plus luminescence reagent (Perkin Elmer) was added to each well of the 384-well assay plates. The plates were placed on an orbital shaker for 2 min and then luminescence was quantified using the Envision (Perkin Elmer) plate reader.

[3] = biological target: recombinant DYRK1A kinase (Homo sapiens (Human), UniProt Q13627); assay: DYRK1A kinase assay (Ser/Thr 18 peptide Z-lyte FRET); assay type: biochemical; details: 30 μM ATP, 1 h room temperature;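 also: Read-out is the coumarin to fluorescein emission ratio, referenced to unphosphorylated (0%) and phosphorylated (100%) Ser/Thr 18 peptide controls, values from dose-response curves by non-linear regression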
[4] = system: Tau phosphorylation at Ser396 (pSer396); assay: Tau phosphorylation assay (pSer396 ELISA / western blot) in SH-SY5Y cells; assay type: cell-based, human; details: Homo sapiens, read-out: pSer396 Tau EC50;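 also: EC50 for reduction of Tau pSer396 in lysed cells, measured by colorimetric ELISA or chemiluminescent western blot, both using the same pSer396 antibody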
IL-6 = IL-6 inhibition in LPS-stimulated human peripheral blood mononuclear cells (HTRF); assay type: cell-based; details: Homo sapiens, PBMC; for pEC50: Table 9, huPBMCs, LPS 50 ng/mL, 22 hours, dose-response starting from 10 μM; for inhibition at 10 µM: read-out: percent value in parentheses beside EC50 >10 μM;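 as to all read-outs here: IL-6 detected by HTRF with an XL665- and Cryptate-labelled anti-IL-6 antibody pair, samples run in duplicate, EC50 obtained from a four-parameter Levenberg-Marquardt curve fit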
Protocol: After 22 hour incubation, a mixture of anti-IL6 XL665 and anti-IL-6 Cryptate diluted in reconstitution buffer (Catalog #62IL6PEC, Cisbio Inc., Bedford, Mass.) was added to each well. […] All samples were processed in duplicate. […] EC50 was determined using software generated by Dotmatics Limited (Windhill Bishops Stortford Herts, UK) using the Levenberg-Marquardt 4 parameter fitting procedure with finite different gradients.

[5] = SH-SY5Y cells, overnight (16-18 h) exposure

recombinant GSK3β kinase, sequence (P49841 whole entry): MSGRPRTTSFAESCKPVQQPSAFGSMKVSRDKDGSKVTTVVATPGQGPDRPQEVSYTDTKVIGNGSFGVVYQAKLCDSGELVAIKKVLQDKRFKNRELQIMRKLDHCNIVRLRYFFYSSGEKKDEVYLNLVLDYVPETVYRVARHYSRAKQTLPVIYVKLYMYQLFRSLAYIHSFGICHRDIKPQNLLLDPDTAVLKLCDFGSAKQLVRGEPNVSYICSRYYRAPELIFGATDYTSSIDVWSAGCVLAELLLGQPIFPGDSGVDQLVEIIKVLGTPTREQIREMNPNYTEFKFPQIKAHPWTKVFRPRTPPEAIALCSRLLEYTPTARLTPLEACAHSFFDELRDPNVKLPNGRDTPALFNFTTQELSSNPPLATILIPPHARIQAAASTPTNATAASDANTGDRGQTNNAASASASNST

CC(F)(F)CN1CCC(C(=O)Nc2cc3cc(-c4cnco4)ccc3cn2)CC1 [Compound 1057, 1-(2,2-Difluoropropyl)-N-(6-(oxazol-5-yl)isoquinolin-3-yl)piperidine-4-carboxamide]
pEC50 [1]: 5.35
pEC50 (recombinant GSK3β kinase): 7.01
inhibition at 10 µM [2]: 5%
pEC50 [2]: < 5.00
pEC50 [3]: 8.57
pEC50 [4, 5]: 6.47
pEC50 (IL-6): 5.49

Cn1ncc(-c2ccc3cnc(NC(=O)C4CCOCC4)cc3c2)c1CN1CCCCC1 [Compound 839, N-(6-(1-Methyl-5-(piperidin-1-ylmethyl)-1H-pyrazol-4-yl)isoquinolin-3-yl) tetrahydro-2H-pyran-4-carboxamide]
pEC50 [1]: 5.93
pEC50 (recombinant GSK3β kinase): 7.77
pEC50 [2]: 6.11
pEC50 [3]: 8.42
pEC50 [4, 5]: 6.60
pEC50 (IL-6): 5.48

Cc1nnc(-c2ccc3cnc(NC(=O)CN4C5CCC4COC5)cc3c2)s1 [Compound 962, 2-(3-Oxa-8-azabicyclo[3.2.1]octan-8-yl)-N-(6-(5-methyl-1,3,4-thiadiazol-2-yl)isoquinolin-3-yl)acetamide]
pEC50 [1]: < 5.00
inhibition at 10 µM [1]: 30.9%
pEC50 (recombinant GSK3β kinase): 7.24
inhibition at 10 µM [2]: 45%
pEC50 [2]: < 5.00
pEC50 [3]: 7.63
pEC50 ([4]; SH-SY5Y): 6.35
inhibition at 10 µM (IL-6): 9.6%
pEC50 (IL-6): < 5.00

Cn1ncc(-c2ccc3cnc(NC(=O)[C@H]4CC[C@H](CO)CC4)cc3c2)c1CN1CCCCC1 [Compound 798, trans-4-(Hydroxymethyl)-N-(6-(1-methyl-5-(piperidin-1-ylmethyl)-1H-pyrazol-4-yl)isoquinolin-3-yl)cyclohexane-1-carboxamide]
pEC50 [1]: 6.21
pEC50 (recombinant GSK3β kinase): 7.51
pEC50 [2]: 6.23
pEC50 [3]: 8.51
pEC50 [4, 5]: 6.49
pEC50 (IL-6): 5.90

Cc1nnc(-c2ccc3cnc(NC(=O)[C@H]4CC[C@H](CO)CC4)cc3c2)s1 [Compound 888, trans-4-(Hydroxymethyl)-N-(6-(5-methyl-1,3,4-thiadiazol-2-yl)isoquinolin-3-yl)cyclohexane-1-carboxamide]
pEC50 [1]: 5.61
pEC50 (recombinant GSK3β kinase): 8.10
pEC50 [2]: 5.98
pEC50 [3]: 8.85
pEC50 [4, 5]: 6.71
pEC50 (IL-6): 5.40

Cc1nnc(-c2ccc3cnc(NC(=O)CN4C5CCC4CC5)cc3c2)s1 [Compound 959, 2-(7-Azabicyclo[2.2.1]heptan-7-yl)-N-(6-(5-methyl-1,3,4-thiadiazol-2-yl)isoquinolin-3-yl)acetamide]
pEC50 [1]: < 5.00
inhibition at 10 µM [1]: 45%
pEC50 (recombinant GSK3β kinase): 7.35
pEC50 [2]: 5.37
pEC50 [3]: 7.81
pEC50 ([4]; SH-SY5Y): 6.35
inhibition at 10 µM (IL-6): 6.1%
pEC50 (IL-6): < 5.00

Cn1cc(-c2ccc3cnc(NC(=O)CCN4CCOCC4)cc3c2)cn1 [Compound 1034, N-(6-(1-Methyl-1H-pyrazol-4-yl)isoquinolin-3-yl)-3-morpholinopropanamide]
pEC50 [1]: 5.49
pEC50 (recombinant GSK3β kinase): 7.57
pEC50 [2]: 5.69
pEC50 [3]: 8.72
pEC50 [4, 5]: 6.37
pEC50 (IL-6): 5.48

CC(F)(F)CN1CCC(C(=O)Nc2cc3cc(-c4cncs4)ccc3cn2)CC1 [Compound 731, 1-(2,2-Difluoropropyl)-N-(6-(thiazol-5-yl)isoquinolin-3-yl)piperidine-4-carboxamide]
pEC50 [1]: 5.96
pEC50 (recombinant GSK3β kinase): 7.38
pEC50 [2]: 5.52
pEC50 [3]: 8.85
pEC50 [4, 5]: 6.35
pEC50 (IL-6): 5.93

Cc1ncc(-c2ccc3cnc(NC(=O)CCN4CCOCC4)cc3c2)o1 [Compound 1068, N-(6-(2-Methyloxazol-5-yl)isoquinolin-3-yl)-3-morpholinopropanamide]
pEC50 [1]: < 5.00
inhibition at 10 µM [1]: 46%
pEC50 (recombinant GSK3β kinase): 7.44
pEC50 [2]: 5.43
pEC50 [3]: 8.28
pEC50 [4, 5]: 6.16
pEC50 (IL-6): 5.47

CN(C)C1CCC(C(=O)Nc2cc3cc(-c4cnn(C)c4)ccc3cn2)CC1 (stereo in doubt) [Compound 1081, trans-4-(Dimethylamino)-N-(6-(1-methyl-1H-pyrazol-4-yl)isoquinolin-3-yl)cyclohexane-1-carboxamide]
pEC50 [1]: 5.33
pEC50 (recombinant GSK3β kinase): 7.09
pEC50 [2]: 5.56
pEC50 [3]: 8.66
pEC50 [4, 5]: 6.33
pEC50 (IL-6): 5.96

CN1CCCC(C(=O)Nc2cc3cc(-c4cnn(C)c4)ccc3cn2)CC1 (stereo not shown) [Compound 1080, 1-Methyl-N-(6-(1-methyl-1H-pyrazol-4-yl)isoquinolin-3-yl)azepane-4-carboxamide]
pEC50 [1]: 5.86
pEC50 (recombinant GSK3β kinase): 7.25
pEC50 [2]: 5.91
pEC50 [3]: 8.49
pEC50 [4, 5]: 6.60
pEC50 (IL-6): 5.97

Cc1ncc(-c2ccc3cnc(NC(=O)[C@H]4CC[C@H](N(C)C)CC4)cc3c2)o1 [Compound 1082, trans-4-(Dimethylamino)-N-(6-(2-methyloxazol-5-yl)isoquinolin-3-yl) cyclohexane-1-carboxamide]
pEC50 [1]: 5.15
pEC50 (recombinant GSK3β kinase): 6.68
pEC50 [2]: 5.00
pEC50 [3]: 7.99
pEC50 [4, 5]: 5.96
pEC50 (IL-6): 5.53

Cc1nnc(-c2ccc3cnc(NC(=O)CN4CCCOCC4)cc3c2)s1 [Compound 1049, N-(6-(5-Methyl-1,3,4-thiadiazol-2-yl)isoquinolin-3-yl)-2-(1,4-oxazepan-4-yl) acetamide]
pEC50 [1]: < 5.00
inhibition at 10 µM [1]: 31.3%
pEC50 (recombinant GSK3β kinase): 7.92
pEC50 [2]: 5.59
pEC50 [3]: 8.16
pEC50 [4, 5]: 6.50
inhibition at 10 µM (IL-6): 10.4%
pEC50 (IL-6): < 5.00

Cn1cc(-c2ccc3cnc(NC(=O)[C@H]4C[C@H](N5CCOCC5)C4)cc3c2)cn1 [Compound 1035, trans-N-(6-(1-Methyl-1H-pyrazol-4-yl)isoquinolin-3-yl)-3-morpholinocyclobutane-1-carboxamide]
pEC50 [1]: 5.61
pEC50 (recombinant GSK3β kinase): 8.00
pEC50 [2]: 5.86
pEC50 [3]: 8.59
pEC50 [4, 5]: 6.89
pEC50 (IL-6): 5.99

Cc1ncc(-c2ccc3cnc(NC(=O)CN4CCCCC4)cc3c2)o1 [Compound 1028, N-(6-(2-Methyloxazol-5-yl)isoquinolin-3-yl)-2-(piperidin-1-yl)acetamide]
pEC50 [1]: 5.45
pEC50 (recombinant GSK3β kinase): 6.98
pEC50 [2]: 5.41
pEC50 [3]: 7.65
pEC50 [4, 5]: 6.27
pEC50 (IL-6): 5.71

CN1CCC(C(=O)Nc2cc3cc(-c4cnn(C)c4)c(Cl)cc3cn2)CC1 [Compound 1027, N-(7-Chloro-6-(1-methyl-1H-pyrazol-4-yl)isoquinolin-3-yl)-1-methylpiperidine-4-carboxamide]
pEC50 [1]: 6.31
pEC50 (recombinant GSK3β kinase): 5.51
pEC50 [2]: 6.06
pEC50 [3]: 7.30
pEC50 [4, 5]: 5.66
inhibition at 10 µM (IL-6): 0%
pEC50 (IL-6): < 5.00

CCN(CC)c1ncc(-c2ccc3cnc(NC(=O)CN4CCN(C)CC4)cc3c2)s1 [Compound 1048, N-(6-(2-(Diethylamino)thiazol-5-yl)isoquinolin-3-yl)-2-(4-methylpiperazin-1-yl)acetamide]
pEC50 [1]: 5.39
pEC50 (recombinant GSK3β kinase): 5.24
pEC50 [2]: 5.03
pEC50 [3]: 6.27
pEC50 [4, 5]: 5.33
inhibition at 10 µM (IL-6): 4.3%
pEC50 (IL-6): < 5.00

Cc1ncc(-c2ccc3cnc(NC(=O)CN4CCOCC4)cc3c2)o1 [Compound 1067, N-(6-(2-Methyloxazol-5-yl)isoquinolin-3-yl)-2-morpholinoacetamide]
pEC50 [1]: < 5.00
inhibition at 10 µM [1]: 43.1%
pEC50 (recombinant GSK3β kinase): 7.17
inhibition at 10 µM [2]: 48.7%
pEC50 [2]: < 5.00
pEC50 [3]: 7.73
pEC50 [4, 5]: 6.14
pEC50 (IL-6): 5.05

CNc1ncc(-c2ccc3cnc(NC(=O)C4CCN(C)CC4)cc3c2)s1 [Compound 1041, 1-Methyl-N-(6-(2-(methylamino)thiazol-5-yl)isoquinolin-3-yl)piperidine-4-carboxamide]
pEC50 [1]: 5.56
pEC50 (recombinant GSK3β kinase): 7.24
pEC50 [2]: 6.11
pEC50 [3]: 8.48
pEC50 [4, 5]: 5.89
pEC50 (IL-6): 6.03

Cc1ncc(-c2ccc3cnc(NC(=O)[C@H]4C[C@H](N5CCOCC5)C4)cc3c2)o1 [Compound 1061, trans-N-(6-(2-Methyloxazol-5-yl)isoquinolin-3-yl)-3-morpholinocyclobutane-1-carboxamide]
pEC50 [1]: 5.80
pEC50 (recombinant GSK3β kinase): 8.10
pEC50 [2]: 5.79
pEC50 [3]: 8.37
pEC50 [4, 5]: 7.24
pEC50 (IL-6): 6.02

CN1CCC(NC(=O)Nc2cc3cc(-c4cnn(C)c4)ccc3cn2)CC1 [Compound 1090, 1-(6-(1-Methyl-1H-pyrazol-4-yl)isoquinolin-3-yl)-3-(1-methylpiperidin-4-yl)urea]
pEC50 [1]: 6.00
pEC50 (recombinant GSK3β kinase): 6.54
pEC50 [2]: 6.14
pEC50 [3]: 8.16
pEC50 [4, 5]: 6.01
pEC50 (IL-6): 6.32

CNc1ncc(-c2ccc3cnc(NC(=O)C4CCNCC4)cc3c2)s1 [Compound 1040, N-(6-(2-(Methylamino)thiazol-5-yl)isoquinolin-3-yl)piperidine-4-carboxamide]
pEC50 [1]: 5.57
pEC50 (recombinant GSK3β kinase): 7.01
pEC50 [2]: 5.92
pEC50 [3]: 8.32
pEC50 [4, 5]: 5.80
pEC50 (IL-6): 5.93

Cn1cc(-c2ccc3cnc(NC(=O)CN4CCC(O)CC4)cc3c2)cn1 [Compound 1078, 2-(4-Hydroxypiperidin-1-yl)-N-(6-(1-methyl-1H-pyrazol-4-yl)isoquinolin-3-yl)acetamide]
pEC50 [1]: 5.36
pEC50 (recombinant GSK3β kinase): 7.15
pEC50 [2]: 5.39
pEC50 [3]: 8.22
pEC50 [4, 5]: 6.34
pEC50 (IL-6): 5.49
